Measurements reported in patent publication US10030256B2, “Method for producing lysophosphatidylethanolamine 18:1 from microorganism of Pseudomonas sp” (KOREA RESEARCH INSTITUTE OF BIOSCIENCE AND BIOTECHNOLOGY, priority 2015, dated 2018).

Tests used:
NPR1 = NPR1 transition in transgenic plant carrying 35S::NPR1-eGFP; format: in vivo, Arabidopsis thaliana; settings: 35S::NPR1-eGFP transgenic plants, observed 6 hours after spraying
Experimental: NPR1 transition was determined by spraying LPE (100 nmol ml^−1 in 0.018% Silwet L-77), salicylic acid (0.3 mM in 0.018% Silwet L-77), or mock solution (0.018% Silwet L-77) to a transgenic plant carrying 35S::NPR1-eGFP, and observing, 6 hours later, the plant leaf with a laser scanning confocal microscope (Zeiss, Germany).

[1] = system: PR1, PDF1.2, VSP1, JMT, ICS1, PAL1, ACS, LOX2; experiment: Gene expression analysis (RT-PCR / real-time qPCR) in Arabidopsis leaves after treatment; format: in vivo, Arabidopsis thaliana
Experimental: Total RNA was extracted by using RNA isolator (Gibco, USA) from a sample which has been frozen with liquid nitrogen (i.e., 2 leaves per sample). Reverse transcription polymerase chain reaction (RT-PCR) and real-time quantitative polymerase chain reaction (real-time qPCR) were carried out by using gene-specific primers. For the analysis of a real-time quantitative polymerase chain reaction, Applied Biosystems 7900 Real-Time PCR SYSTEM™ was used. 2×SYBR® Green qPCR master mix was used for PCT amplification. The analyzed data were normalized first against the amount of ACTIN1 gene, and the fold increase of gene expression according to treatment was determined in comparison with a mock or non-treatment plant (1.0 fold). Reference gene as an alternative (AT1G13320) was obtained from the previous study (Hong et al., 2010, Plant Cell Physiol. 51:1694-1706). The gene-specific primers that are used in the present invention are as described in Table 1 and Table 2 below.
(§1) Every phospholipid was purchased from Avanti Polar Lipids Inc. (USA), and free fatty acids (16:0, 18:0 and 18:1) were purchased from Sigma Co. (USA). The solvent was dried under nitrogen gas stream, and the lipids were suspended therein according to ultrasonication so as to have final concentration of 100 nmol ml^−1 in 0.018% silwet L-77 (or 200 nmol ml^−1 in H2O).
(§2) The mature form of the recombinant PLA2α protein was produced in Escherichia coli which is fused with Dsbc protein. According to the method described before (Ryu et al., 2005, Biochem Biophys Acta. 1736:144-151), it was purified by affinity chromatography. The protein mixture in which PLA2α and Dsbc are separated from each other or Dsbc:PLA2α fusion protein (10 μgml^−1) was treated on the leaf of pla2α mutant by syringe infiltration, each in an amount of 0.5 μg. The enzyme activity of PLA2α was determined by in vitro analysis using substrate PE for a reaction mixture containing 10 mM Ca^2+ and 0.05% Triton X-100 in 50 mM Tris-HCl (pH 8.5). The mock-treated plant was infiltrated with a buffer (50 mM Tris-HCl, pH 8.0) or Dsbc protein. For inactivation of the PLA2α activity, recombinant PLA2α was pre-treated for 30 minutes at 30° C. with 2 μM manoalide as an irreversible inhibitor.

PLA2α = target: T1, PLA2α (Arabidopsis thaliana, UniProt Q8S8N6); experiment: In vitro analysis of PLA2 activity (inactivation by manoalide); format: biochemical; settings: 2 μM manoalide, 30 minutes at 30° C.
T1 construct: The mature form of the recombinant PLA2α protein was produced in Escherichia coli which is fused with Dsbc protein; DsbC; made in house; host or cells: Escherichia coli
T1 sequence (Q8S8N6 21-148): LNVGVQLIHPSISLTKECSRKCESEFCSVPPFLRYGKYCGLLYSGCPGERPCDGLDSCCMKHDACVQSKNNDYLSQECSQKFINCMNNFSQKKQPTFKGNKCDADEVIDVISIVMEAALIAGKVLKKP
Experimental: as §2

Pst-avrRpm1 = experiment: Recovery of local immune response in pla2α mutant plant by exogenous lipid after Pst-avrRpm1 inoculation; format: in vivo, Arabidopsis thaliana; settings: for complementation of impaired local immunity of pla2α mutant plants (bacterial growth assay): FIG. 3B
Experimental: Arabidopsis plant was cultivated at temperature of 22° C. and relative humidity of 60% with conditions including 16 hours of light period and 120 μmoles m^−2s^−1 of photon flux density. Because the plant defense response is age-dependent, fully mature leaves of the 4 week old plant were used for various analyses. Arabidopsis (Arabidopsis thaliana) mutants including pla2α, pla2α-II, sid2, npr1-5, rps2 and ein2 (Salk_099415, CS857021, Salk_042603, CS3724, Salk_087581, CS3071 and CS8072, respectively) were purchased from Arabidopsis Biological Resource Center, USA. Arabidopsis mutants eds1 and pad4-5 were obtained from S. A. Whitham (Iowa State University, USA) and J. E. Parker (Max Planck Institute for Plant Breeding Research, Germany), respectively. The transgenic line expressing NPR1-eGFP and NahG were obtained from X. Dong (Duke University, USA) and O. M. Park (Korea University, South Korea), respectively.
(§3) Pseudomonas syringae pv. tomato DC3000 (hereinbelow, Pst) and Pst-avrRpm1, which is avrRpm1-containing bacterial strain with no virulency, were obtained from Y. J. Kim (Korea University, South Korea). Pst-avrRpt2, which is avrRpt2-containing bacterial strain with no virulency, was obtained from J. M. Park (KRIBB, South Korea) and Pst-avrRps4, which is avrRps4-containing bacterial strain with no virulency, was obtained from R. Innes (Indiana University, USA). The bacterial strains were cultured and treated according to the method of Katagiri, et al. (Arabidopsis Book, 2002, 1:e0039).
as §1
(§4) Based on the analysis of pla2α mutant plants compared to wild type, we hypothesized that the defect in immune responses of the pla2α mutant may be due to the failure to generate the lipid products that mediate downstream immune responses. To test this hypothesis, we supplemented pla2α mutant with LPE18:1 1.5 h after inoculation of Pst-avrRpm1. […] Very importantly, LPE by itself renders local immunity in the absence of avirulent Pst (FIGS. 3C-3E). […] In addition, disease symptoms were much reduced in LPE-sprayed leaves compared to mock-treated ones (FIG. 3E).

virulent Pst = experiment: Acquirement of local immunity against virulent Pst by treatment with only LPE; format: in vivo, Arabidopsis thaliana; settings: for bacterial growth of virulent Pst: compared to mock treatment
Experimental: as §3, §1, §4

Pst = experiment: In vitro antibacterial activity against Pst; format: cell-based, Pseudomonas syringae pv. tomato DC3000
Experimental: In order to determine the antibacterial activity of PLA2α, 3 μg of recombinant PLA2α in free and mature form, which has been prepared according to the method by Ryu et al. (Biochem Biophys Acta. 2005, 1736:144-151), was added to 100 μl of a solution (Tris-HCl (50 mM, pH 8.0), 10 mM calcium chloride (CaCl2)) in which virulent Pst (5×10^5 CFU ml^1) is suspended. The bacteria sample was cultured in a weak shaking state at 28° C. for 6 hours. Thereafter, only the survived bacteria were titrated. As a mock control group, a suspension in which the bacteria are suspended in a solution having no PLA2α was used.

[2] = system: salicylic acid, ethylene, and jasmonic acid; experiment: Quantification of salicylic acid, ethylene and jasmonic acid in Arabidopsis leaf; format: in vivo, Arabidopsis thaliana
Source text: According to the method described before (Bowling et al., 1994, Plant Cell 6:1845-1857; Heck et al., 2003, Plant J. 36:342-352), salicylic acid, ethylene, and jasmonic acid were quantified from 0.5 g of a Arabidopsis leaf sample which has been sprayed with Pst-avrRpm1 suspension (1×10^8 CFU ml^−1 in 0.018% Silwet L-77) or LPE (100 nmol ml^−1 in 0.018% Silwet L-77 or 200 nmol ml^−1 in H2O).

[3] = suppression of aging; cited from earlier work

Compound: O=C(O)c1ccccc1O [SA, salicylic acid, reference compound]
- NPR1 translocation from the cytoplasm to the nucleus (NPR1): as did SA treatment

Compound: CC1=C(CC/C(C)=C/CCC2=CC[C@H](C3=CC(=O)O[C@H]3O)O[C@H]2O)C(C)(C)CCC1 [manoalide, reference compound]
- PR1 gene expression by rPLA2α catalytically inactivated with manoalide ([1]; rPLA2α pre-treated with PLA2 inhibitor manoalide): failed to induce PR1 gene expression
- inactivation of the PLA2α activity (PLA2α): Inactivation of the PLA2α activity caused by manoalide was confirmed

Compound: lysophosphatidylethanolamine 18:1 [LPE18:1]
- recovery of phenotypic defect of pla2α mutant plant (Pst-avrRpm1; FIG. 3A): recovery of phenotypic defect
- complementation of impaired local immunity of pla2α mutant plants (bacterial growth assay) (Pst-avrRpm1): complemented by LPE
- ability of the pla2α mutant to induce local immune responses (Pst-avrRpm1; pla2α mutant supplemented 1.5 h after inoculation of Pst-avrRpm1): restored the ability of the pla2α mutant to induce local immune responses
- ACS gene expression ([1]; Arabidopsis leaves): exhibited ACS gene expression
- LOX2 gene expression ([1]; Arabidopsis leaves): did not exhibit a significant increase in LOX2 gene expression
- PAL1 expression ([1]; Arabidopsis leaves): did not elevate PAL1 expression
- ICS1 gene expression ([1]; Arabidopsis leaves, 6 h post-treatment): displayed ICS1 gene expression
- PR1 gene expression in the sid2 mutant plants ([1]; sid2 mutant): failed to induce PR1 gene expression
- expression of the PR genes PR1 and PDF1.2 ([1]; wild type leaf, LPE vs mock, absence of avirulent Pst): induced the expression of the PR genes PR1 and PDF1.2
- disease symptoms (virulent Pst; LPE-sprayed leaves compared to mock-treated): much reduced
- bacterial growth of virulent Pst (virulent Pst; pla2α mutant plants): suppressed the bacterial growth
- bacterial growth of virulent Pst (virulent Pst; wild type plants): suppressed the bacterial growth
- direct effect on bacterial growth in in vitro assays (Pst): no direct effect on bacterial growth
- JA levels ([2]; Arabidopsis leaves): did not exhibit a significant increase
- ethylene levels ([2]; Arabidopsis leaves): an increase in ethylene levels
- increase in SA levels ([2]; Arabidopsis leaves treated with LPE18:1): 2.5 fold
- NPR1 translocation from the cytoplasm to the nucleus (NPR1): activated NPR1 by inducing its translocation from the cytoplasm to the nucleus
- biological efficacy compared with LPE 16:0 or LPE 18:0 [3]: much higher biological efficacy

Compound: lysophosphatidylglycerol [LPG, reference compound]
- complementation of impaired local immunity of pla2α mutant plants (bacterial growth assay) (Pst-avrRpm1): only a little
